What all share (assay type): biochemical
Assay [1] concerns the target T1, human Flt-3 kinase domain R571-S993 (Homo sapiens, UniProt P36888).
T1 construct: baculovirus expressed human Flt-3 kinase domain R571-S993; made in house
T1 sequence (P36888 571-993): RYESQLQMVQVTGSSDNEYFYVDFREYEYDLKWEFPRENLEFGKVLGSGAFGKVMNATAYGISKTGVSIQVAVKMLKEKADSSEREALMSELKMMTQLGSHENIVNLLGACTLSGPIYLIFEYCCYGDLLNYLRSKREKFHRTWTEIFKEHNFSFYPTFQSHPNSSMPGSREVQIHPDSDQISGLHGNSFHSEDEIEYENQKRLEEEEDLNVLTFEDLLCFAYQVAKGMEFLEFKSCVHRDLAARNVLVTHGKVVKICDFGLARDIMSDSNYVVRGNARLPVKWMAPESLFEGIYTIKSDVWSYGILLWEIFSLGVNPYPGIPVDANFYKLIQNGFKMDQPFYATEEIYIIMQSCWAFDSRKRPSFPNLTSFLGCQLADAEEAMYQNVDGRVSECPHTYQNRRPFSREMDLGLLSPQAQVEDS
The assay can be described thus: flt-3 Luciferase-Coupled Chemiluminescent Kinase assay (LCCA). To be noted: 5 μM ATP, 3 μM poly-EY, 5 nM Flt-3; read-out: flt-3 inhibition IC50. As to the method:
(§1) Kinase activity and compound inhibition are investigated using one or more of the three assay formats described below. The ATP concentrations for each assay are selected to be close to the Michaelis-Menten constant (KM) for each individual kinase. Dose-response experiments are performed at 10 different inhibitor concentrations in a 384-well plate format. The data are fitted to the following four-parameter equation: Y=Min+(Max−Min)/(1+(X/IC50)^H) where Y is the observed signal, X is the inhibitor concentration, Min is the background signal in the absence of enzyme (0% enzyme activity), Max is the signal in the absence of inhibitor (100% enzyme activity), IC50 is the inhibitor concentration at 50% enzyme inhibition and H represents the empirical Hill's slope to measure the cooperativity. Typically H is close to unity. c-Met Assay
Biochemical activity for flt-3 was assessed using a Luciferase-Coupled Chemiluminescent Kinase assay (LCCA) format. Kinase activity was measured as the percent ATP remaining following the kinase reaction. Remaining ATP was detected by luciferase-luciferin-coupled chemiluminescence. Specifically, the reaction was initiated by mixing test compounds, 5 μM ATP, 3 μM poly-EY and 5 nM Flt-3 (baculovirus expressed human Flt-3 kinase domain R571-S993) in a 20 uL assay buffer (20 mM Tris-HCL pH7.5, 10 mM MgCl2, 0.01% Triton X-100, 1 mM DTT, 2 mM MnCl2). The mixture is incubated at ambient temperature for 3 hours after which 20 uL luciferase-luciferin mix is added and the chemiluminescent signal read using a Wallac Victor^2 reader. The luciferase-luciferin mix consists of 50 mM HEPES, pH 7.8, 8.5 ug/mL oxalic acid (pH 7.8), 5 (or 50) mM DTT, 0.4% Triton X-100, 0.25 mg/mL coenzyme A, 63 uM AMP, 28 ug/mL luciferin and 40,000 units of light/mL luciferase.

The target of assay [2] is T2, human KDR kinase domain D807-V1356 (Homo sapiens, UniProt P35968).
T2 construct: baculovirus expressed human KDR kinase domain D807-V1356; made in house
T2 sequence (P35968 807-1356): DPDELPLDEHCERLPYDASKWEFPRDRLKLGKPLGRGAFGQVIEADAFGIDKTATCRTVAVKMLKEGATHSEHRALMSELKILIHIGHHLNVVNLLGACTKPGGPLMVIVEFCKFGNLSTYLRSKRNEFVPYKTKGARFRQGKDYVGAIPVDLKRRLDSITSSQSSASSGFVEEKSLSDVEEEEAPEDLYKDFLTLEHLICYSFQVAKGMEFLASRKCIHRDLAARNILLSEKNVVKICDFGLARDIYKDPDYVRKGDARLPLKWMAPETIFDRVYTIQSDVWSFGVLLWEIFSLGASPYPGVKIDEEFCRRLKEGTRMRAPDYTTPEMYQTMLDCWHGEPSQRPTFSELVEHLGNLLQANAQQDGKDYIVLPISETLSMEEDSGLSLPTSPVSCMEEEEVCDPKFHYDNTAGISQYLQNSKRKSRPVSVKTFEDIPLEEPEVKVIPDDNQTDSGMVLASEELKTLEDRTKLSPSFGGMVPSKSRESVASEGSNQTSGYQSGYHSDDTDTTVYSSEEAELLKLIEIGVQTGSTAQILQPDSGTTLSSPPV
The assay can be described thus: KDR Luciferase-Coupled Chemiluminescent Kinase assay (LCCA). To be noted: 3 μM ATP, 1.6 μM poly-EY, 5 nM KDR; read-out: KDR inhibition IC50. As to the method: as §1
KDR biochemical activity was assessed using a Luciferase-Coupled Chemiluminescent Kinase assay (LCCA) format. Kinase activity was measured as the percent ATP remaining following the kinase reaction. Remaining ATP was detected by luciferase-luciferin-coupled chemiluminescence. Specifically, the reaction was initiated by mixing test compounds, 3 μM ATP, 1.6 μM poly-EY and 5 nM KDR (baculovirus expressed human KDR kinase domain D807-V1356) in a 20 uL assay buffer (20 mM Tris-HCL pH7.5, 10 mM MgCl2, 0.01% Triton X-100, 1 mM DTT, 3 mM MnCl2). The mixture is incubated at ambient temperature for 4 hours after which 20 uL luciferase-luciferin mix is added and the chemiluminescent signal read using a Wallac Victor^2 reader. The luciferase-luciferin mix consists of 50 mM HEPES, pH 7.8, 8.5 ug/mL oxalic acid (pH 7.8), 5 (or 50) mM DTT, 0.4% Triton X-100, 0.25 mg/mL coenzyme A, 63 uM AMP, 28 ug/mL luciferin and 40,000 units of light/mL luciferase.

For assay [3], the target named is human c-Met kinase domain P948-S1343 (Homo sapiens, UniProt P08581). Briefly: c-Met Luciferase-Coupled Chemiluminescent Kinase assay (LCCA). To be noted: 1 μM ATP, 1 μM poly-EY, 10 nM c-Met; read-out: c-Met inhibition IC50. As to the method: as §1
Chain of human c-Met kinase domain P948-S1343 (P08581 1011-1367 limits assumed): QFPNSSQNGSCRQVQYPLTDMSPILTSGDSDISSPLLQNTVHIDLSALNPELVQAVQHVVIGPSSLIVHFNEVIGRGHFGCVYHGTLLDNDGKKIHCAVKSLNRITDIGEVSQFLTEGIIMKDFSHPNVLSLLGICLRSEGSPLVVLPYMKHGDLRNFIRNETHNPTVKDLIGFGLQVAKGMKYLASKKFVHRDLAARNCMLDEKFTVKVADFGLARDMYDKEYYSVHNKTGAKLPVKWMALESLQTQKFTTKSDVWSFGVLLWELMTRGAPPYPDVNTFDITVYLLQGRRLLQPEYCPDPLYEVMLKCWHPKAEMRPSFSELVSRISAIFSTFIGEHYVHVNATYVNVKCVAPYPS
c-Met biochemical activity was assessed using a Luciferase-Coupled Chemiluminescent Kinase assay (LCCA) format as described above. Again, kinase activity was measured as the percent ATP remaining following the kinase reaction. Remaining ATP was detected by luciferase-luciferin-coupled chemiluminescence. Specifically, the reaction was initiated by mixing test compounds, 1 μM ATP, 1 μM poly-EY and 10 nM c-Met (baculovirus expressed human c-Met kinase domain P948-S1343) in a 20 uL assay buffer (20 mM Tris-HCL pH7.5, 10 mM MgCl2, 0.02% Triton X-100, 100 mM DTT, 2 mM MnCl2). The mixture is incubated at ambient temperature for 2 hours after which 20 uL luciferase-luciferin mix is added and the chemiluminescent signal read using a Wallac Victor^2 reader. The luciferase-luciferin mix consists of 50 mM HEPES, pH 7.8, 8.5 ug/mL oxalic acid (pH 7.8), 5 (or 50) mM DTT, 0.4% Triton X-100, 0.25 mg/mL coenzyme A, 63 uM AMP, 28 ug/mL luciferin and 40,000 units of light/mL luciferase.

Each structure is given as a SMILES string. Where only a bound is given, the exact number is not on record here.

As usually defined, the IC50 is the concentration that inhibits the measured activity by half. As to `O=C(CC(=O)Nc1ccc(Oc2ncnc3[nH]ccc23)c(F)c1)Nc1ccc(F)cc1` [Entry 1, N-(4-fluorophenyl)-N′-[3-fluoro-4-(7H-pyrrolo[2,3-d]pyrimidin-4-yloxy)phenyl]propanediamide], the concentration for half-maximal inhibition (IC50) in assay [1] is < 50 nM; in assay [2], 50 to 500 nM; in assay [3] it was 50 to 500 nM.
In the case of `O=C(Nc1ccc(F)cc1)C1(C(=O)Nc2ccc(Oc3ncnc4[nH]ccc34)c(F)c2)CC1` [Entry 2, N-(4-fluorophenyl)-N′-[3-fluoro-4-(7H-pyrrolo[2,3-d]pyrimidin-4-yloxy)phenyl]cyclopropane-1,1-dicarboxamide], the values for the IC50 in assay [1], in assay [2] and in assay [3] were 50 to 500 nM, < 50 nM and < 50 nM, respectively.
On to `O=C(Cc1ccccc1)NC(=S)Nc1ccc(Oc2ncnc3[nH]ccc23)c(F)c1` [Entry 3, N-({[3-fluoro-4-(7H-pyrrolo[2,3-d]pyrimidin-4-yloxy)phenyl]amino}carbonothioyl)-2-phenylacetamide], for which the IC50 in assay [1] was > 500 nM; in assay [2] it was 50 to 500 nM; in assay [3], < 50 nM.
As for `O=C(Nc1ccc(F)cc1)C1(C(=O)Nc2ccc(Oc3ncnc4c3cnn4C3CCCCO3)cc2)CC1` (stereo not shown) [Entry 4, N-(4-fluorophenyl)-N′-(4-{[1-(tetrahydro-2H-pyran-2-yl)-1H-pyrazolo[3,4-d]pyrimidin-4-yl]oxy}phenyl)cyclopropane-1,1-dicarboxamide], the half-inhibitory concentration (IC50) in assay [2] and in assay [3] was > 500 nM in each case.
`O=C(Cc1ccccc1)NC(=S)Nc1ccc(Oc2ncnc3c2cnn3C2CCCCO2)cc1` (stereo not shown) [Entry 5, 2-phenyl-N-{[(4-{[1-(tetrahydro-2H-pyran-2-yl)-1H-pyrazolo[3,4-d]pyrimidin-4-yl]oxy}phenyl)amino]carbonothioyl}acetamide]: the IC50 in assay [2] and in assay [3] was > 500 nM in each case.
With `O=C(Nc1ccc(F)cc1)C1(C(=O)Nc2ccc(Oc3ncnc4[nH]ncc34)cc2)CC1` [Entry 6, N-(4-fluorophenyl)-N′-[4-(1H-pyrazolo[3,4-d]pyrimidin-4-yloxy)phenyl]cyclopropane-1,1-dicarboxamide], the IC50 is 50 to 500 nM in assay [2] and > 500 nM in assay [3].
On the same counts, the results for `O=C(Cc1ccccc1)NC(=S)Nc1ccc(Oc2ncnc3[nH]ncc23)cc1` [Entry 7, 2-phenyl-N-({[4-(1H-pyrazolo[3,4-d]pyrimidin-4-yloxy)phenyl]amino}carbonothioyl)acetamide] are > 500 nM and > 500 nM.
Taken in the same sequence, the figures for `O=C(Nc1ccc(F)cc1)C1(C(=O)Nc2ccc(Oc3ncnc4c3ncn4C3CCCCO3)cc2)CC1` (stereo not shown) [Entry 8, N-(4-fluorophenyl)-N′-(4-{[9-(tetrahydro-2H-pyran-2-yl)-9H-purin-6-yl]oxy}phenyl)cyclopropane-1,1-dicarboxamide] were > 500 nM and > 500 nM.
Regarding `O=C(Cc1ccccc1)NC(=S)Nc1ccc(Oc2ncnc3c2ncn3C2CCCCO2)cc1` (stereo not shown) [Entry 9, 2-phenyl-N-{[(4-{[9-(tetrahydro-2H-pyran-2-yl)-9H-purin-6-yl]oxy}phenyl)amino]carbonothioyl}acetamide], the IC50 in assay [2] and in assay [3] was > 500 nM throughout.
Regarding `O=C(Nc1ccc(F)cc1)C1(C(=O)Nc2ccc(Oc3ncnc4[nH]cnc34)cc2)CC1` [Entry 10, N-(4-fluorophenyl)-N′-[4-(9H-purin-6-yloxy)phenyl]cyclopropane-1,1-dicarboxamide], the IC50 in assay [2] and in assay [3] was > 500 nM throughout.
In the case of `O=C(Cc1ccccc1)NC(=S)Nc1ccc(Oc2ncnc3[nH]cnc23)cc1` [Entry 11, 2-phenyl-N-({[4-(9H-purin-6-yloxy)phenyl]amino}carbonothioyl)acetamide], the 50% inhibitory concentration (IC50) in assay [2] and in assay [3] was > 500 nM in each case.
For the compound `O=C(NCCN1CCOCC1)c1cc2c(Oc3ccc(NC(=O)C4(C(=O)Nc5ccc(F)cc5)CC4)cc3F)ncnc2[nH]1` [Entry 12, N-{3-fluoro-4-[(6-{[(2-morpholin-4-ylethyl)amino]carbonyl}-7H-pyrrolo[2,3-d]pyrimidin-4-yl)oxy]phenyl}-N′-(4-fluorophenyl)cyclopropane-1,1-dicarboxamide], the half-maximal inhibitory concentration (IC50) in assay [1], in assay [2] and in assay [3] was < 50 nM each time.

The values above are taken from patent US7977345B2, “c-MET modulators and method of use” (Exelixis, Inc., priority 2004, dated 2011).
